Test results from patent publication US20220256890A1, “ANIMAL FEED SUPPLEMENT AND ANIMAL FEED COMPOSITION” (MOOTRAL INNOVATIONS LIMITED, priority 2019, published 2022).

Test system: rumen inoculum
Test: in vitro incubation of test materials with rumen inoculum, methane measured by micro-gas chromatograph
Format: cell-based, dairy cows
Settings: Example 2, no garlic, 24 hour incubation
Protocol: Rumen inoculum was obtained before the morning feeding from 3 rumen fistulated dairy cows on a diet composed of 50% maize silage and 50% wilted grass silage (on dry matter basis) supplemented with some straw and urea. Additionally, soybean meal and balanced compound feed were administered to fulfil the animals' requirements for milk production. Test materials were incubated in 125-mL flasks containing 25 mL of CO2-saturated bicarbonate/phosphate buffer (containing 3.58 g Na2HPO4.12H2O, 1.55 g KH2PO4, 0.124 g MgCl2.6H2O, 8.74 g NaHCO3 and 1.71 g NH4HCO3 per liter of distilled water) and rumen inoculum, in triplicate per test material (3 biological replicates). A mixture of maize silage (crude protein 65.6 g kg^−1, crude fat 27.9 g kg^−1, crude fibre 145 g kg^−1 and starch 410 g kg DM^−1), grass silage (crude protein 153 g kg^−1, crude fat 28.8 g kg^−1, crude fibre 277 g kg^−1 and sugar 78.5 g kg^−1) and dairy concentrate (crude protein 183 g kg^−1, crude fibre 29 g kg^−1 an sugar 89 g kg^−1) was used as the substrate (30/30/40, DM weight basis, 250 mg flask^−1). The test materials (garlic powder, eugenol, geranyl acetate and coriander oil) were added shortly before the incubation directly into the fluid. All flasks were incubated in a shaking incubator at 39° C. (Edmund Buhler Gmbh, Hechingen, Germany). At the end of the 24 hour incubation, flasks were removed from the incubator and placed in ice water to stop the fermentation. pH, gas pressure and gas composition were measured, and samples were collected for VFA analysis. Different amounts of garlic powder were used providing allicin doses of 0.1 mg, 0.2 mg, 0.4 mg, and 0.8 mg per flask (i.e. 4 mg/l, 8 mg/l, 16 mg/l, and 32 mg/l). A fixed concentration of 500 mg/l (i.e. 12.5 mg/flask) for the other test materials was used. Water was used as a negative control. The amount of methane gas was measured using a micro-gas chromatograph equipped with two gas chromatographic modules and a thermal conductivity detector (3000 micro-GC, Agilent, USA). Ethane (C2H6; 1 mL/flask) was used as internal standard and argon as a carrier gas for both columns. The data obtained with the test materials was normalized to a non-treated control group, i.e. samples receiving the substrate only (negative control). I.e. 100% refers to the value of the negative control. Values below 100% indicate reduction of methane as a result of the additive. Values above 100% indicate an increase in methane production. The synergism between garlic and a component of essential oil was also studied. Synergy was calculated by adding the percentage reduction of methane by garlic alone and eugenol or geranyl acetate alone and then subtracting the percentage reduction of the combination and the component of essential oil. The resulting values were inversed. […] An experiment was conducted to test the dose-dependent effects of the essential oils and the components of the essential oils. The same method and test materials of Example 1 was used in this experiment. Different amounts of garlic powder were used providing allicin doses of 0.1 mg, 0.2 mg, 0.4 mg, and 0.8 mg per flask (i.e. 4 mg/l, 8 mg/l, 16 mg/l, and 32 mg/l). The doses of eugenol, geranyl acetate, coriander oil and bornyl acetate were varied in this experiment whereby 0.25 mg/ml, 0.5 mg/ml, 0.75 mg/ml of test materials was used. Water was used as a negative control. The amount of methane produced for each reaction was measured using the same method as described in Example 1.

[1] = essential oil or component alone 0.25 mg/mL
[2] = essential oil or component alone 0.5 mg/mL
[3] = essential oil or component alone 0.75 mg/mL

SMILES	production of methane [1] [μmol/reaction]	production of methane [2] [μmol/reaction]	production of methane [3] [μmol/reaction]
CC(=O)OC1CC2CCC1(C)C2(C)C (stereo not drawn) [Bornyl acetate]	422	353	267
C=CCc1ccc(O)c(OC)c1 [Eugenol]	388	310	234
CC(=O)OC/C=C(\C)CCC=C(C)C [Geranyl acetate]	436	327	203
